Source: PMC12057341, “In vitro pharmacokinetic/pharmacodynamic modeling of the effect of mucin on polymyxin B activity against Acinetobacter baumannii” (Antimicrobial Agents and Chemotherapy, 2025)
“Also recorded” adds a separate entry of the source. Where a SMILES comes first, the peptide text is derived from it. Bridges are numbered along the chain shown (N, C = ends). [ ]: non-standard residue; d: D form. The star is where a group is joined. X1 = CC[C@H](C)CCCCC(=O)*; Dab = NCC[C@H](N)C(=O)O

Legend:
[1] = test system: Acinetobacter baumannii AB122-D12; experiment: MIC at the end (T30h) of TK experiments after regrowth, AB122-D12; format: cell-based
Protocol: (§1) PMB MICs of both A. baumannii strains were determined in commercial CAMHB (BioMérieux, Marcy-l’Etoile, France) according to the European Committee on Antimicrobial Susceptibility Testing and Clinical and Laboratory Standards Institute (CLSI) recommendations ([33], [34]). PMB MICs of the two A. baumannii isolates were also determined at least in duplicate in CAMHB supplemented with 1% of mucin.
(§2) Samples were centrifuged (8 minutes at 8,000 rpm); then, the supernates were removed, and the pellets were stored at −80°C in CAMHB-glycerol 20%. A minimum bacterial density of ~10^5 CFU/mL in samples collected at the end of TK experiments was required for MIC susceptibility testing and sequencing.
(§3) Prior to MIC testing, the isolates were streaked onto a drug-free Mueller-Hinton agar plate and incubated for 24 h.

[2] = test system: Acinetobacter baumannii AB121-D0; experiment: PMB MIC in CAMHB with or without 1% mucin, AB121-D0; format: cell-based
Protocol: Two clinical MDR strains of A. baumannii, isolated from a patient before (AB121-D0) and 12 days after treatment with colistin (AB122-D12), were used during this study ([32]). AB122-D12 carries a 10 amino acid insertion into the pmrB gene, known to confer PMB resistance.
as §1

[3] = test system: Acinetobacter baumannii AB121-D0; experiment: MIC at the end (T30h) of TK experiments after regrowth, AB121-D0; format: cell-based
Protocol: as §1, §2, §3

[4] = test system: Acinetobacter baumannii AB121-D0; experiment: Time-kill experiments and PK/PD modeling, AB121-D0; format: cell-based; conditions: for Unbound PMB concentrations at which regrowth was observed in TK: CAMHB + 1% mucin
Protocol: (§4) Bacteria were cultured overnight under shaking (150–170 rpm) in CAMHB at 35°C. The bacterial suspension was then diluted to 1/50 and incubated at 35°C under shaking until an optical density of 0.3 (corresponding to 1.10^8 CFU/ml of bacteria in the exponential growth phase) was achieved. This bacterial suspension was then diluted in order to obtain a starting inoculum at 1.10^6 CFU/mL. TK experiments were performed in CAMHB in the absence and presence of 1% mucin. PMB concentrations varied from 0.5 mg/L to 128 mg/L for AB121-D0 and 8 mg/L to 512 mg/L for AB122-D12. Drug-free CAMHB was used as bacterial growth control for each strain. Tubes were incubated at 35°C under shaking (150–170 rpm), and aliquots were sampled over time at T0h, T1h, T3h, T6h, T10h, T24h, and T30h. Samples were serially diluted in NaCl 0.9% and plated onto Mueller-Hinton agar supplemented with 1% activated charcoal (to prevent PMB carry-over effect). Bacteria were counted after overnight incubation at 35°C. The limit of quantification was fixed based on CLSI guidelines ([38]) and was equal to 400 CFU/ml (i.e. 2.6 log10 CFU/mL). Experiments were conducted in triplicate for both strains.
(§5) Bacterial counts obtained from TK experiments without mucin were first modeled using NONMEM 7.4 (ICON plc, Dublin, Ireland) with the Laplacian algorithm and the M3 method for handling observations below the limit of quantification ([39]). PMB was assumed to be stable over the course of the experiment as previously shown ([40]). A previously described model with hetero-resistance ([41]), that is, two bacterial subpopulations, one susceptible to PMB (S) and one resistant (R), was used to describe the time course of bacterial counts for the two A. baumannii strains (Fig. 1). Different functions were tested to characterize the PMB killing effect (see supplemental material for model building).
Then, TK data in the presence of mucin were included in the data set and PMB total concentrations were corrected for mucin binding using equation 1, with unbound PMB concentrations driving the antibacterial effect. Random variability between TK experiments (one experiment corresponding to a replicate of a tested concentration) was included to account for the uncertainty associated with each parameter of equation 1 and thus with the estimation of unbound PMB concentration in TK, such as:
An impact of mucin on PD model parameters was tested on top of PMB binding to mucin with the following equation:
(4) Pj=θj,1×(1−Mucin)+θj,2×Mucin,
where Pj was the jth parameter of the PD model, Mucin was a categorical variable either equal to 0 or 1 depending on its absence or presence in TK experiments respectively, θj,1 and θj,2 corresponded to the Pj value in the absence and in the presence of mucin, respectively. […]

[5] = assumed for TK modeling, as previously shown; cited from earlier work
Source text: as §5, with “w ...” for “were tested to characterize the PMB killing effect (see supplemental material for model building).”

[6] = test system: Acinetobacter baumannii AB122-D12; experiment: Time-kill experiments and PK/PD modeling, AB122-D12; format: cell-based
Protocol: as §4, §5
Then, TK data in the presence of mucin were included in the data set and PMB total concentrations were corrected for mucin binding using equation 1, with unbound PMB concentrations driving the antibacterial effect. […]

[7] = with and without mucin together

**Q.** What does the source list for `CC[C@H](C)CCCCC(=O)N[C@@H](CCN)C(=O)N[C@H](C(=O)N[C@@H](CCN)C(=O)N[C@H]1CCNC(=O)[C@H]([C@@H](C)O)NC(=O)[C@H](CCN)NC(=O)[C@H](CCN)NC(=O)[C@H](CC(C)C)NC(=O)[C@@H](Cc2ccccc2)NC(=O)[C@H](CCN)NC1=O)[C@@H](C)O` [PMB, polymyxin B] (X1-[Dab]T[Dab][Dab][Dab][dF]L[Dab][Dab]T; lactam 4-C)?
**A.** MIC fold-change vs control of respective replicate ([1]; TK in CAMHB + 1% mucin, PMB 48 mg/L, replicate 2, lpxA Ser224Pro): 4; MIC fold-change vs control of respective replicate ([1]; TK in CAMHB + 1% mucin, PMB 135 mg/L, replicate 3, ISAba13 insertion in the promoter of lpxC): 8; MIC fold-change vs control of respective replicate ([1]; TK in CAMHB + 1% mucin, PMB 135 mg/L, replicate 4, ISAba13 insertion in the promoter of lpxC): 4; MIC fold-change vs control of respective replicate ([1]; TK in CAMHB, PMB 16 mg/L, replicate 1, lpxA Arg258Leu): 4; MIC fold-change vs control of respective replicate ([1]; TK in CAMHB, PMB 128 mg/L, replicate 1, lpxA Trp206Arg Thr210Ala): 2; MIC fold-change vs control of respective replicate ([1]; TK in CAMHB, PMB 128 mg/L, replicate 2, lpxA Trp206Arg Thr210Ala): 0.25; Regrowth samples at T30h with ≥fourfold increase in MIC compared with control ([1]; TK in the absence of mucin, 2/18 samples): 11%; Regrowth samples at T30h with ≥fourfold increase in MIC compared with control ([1]; TK in the presence of mucin, 5/26 samples): 19%; Cases of regrowth associated with an increase in the MIC at T30h [1, 7]: 16%; MICu (corrected by fu) ([2]; CAMHB + 1% mucin, unbound MIC = MIC x fu): 13 mg/L; MICu ratio in the presence and absence of mucin ([2]; MIC with 1% mucin corrected by fu): 13; Fold increase of MIC in the presence of 1% mucin compared to CAMHB ([2]; total concentrations): 64 fold; MIC fold-change vs control of respective replicate ([3]; TK in CAMHB + 1% mucin, PMB 0.25 mg/L, replicate 3, pmrB Phe164Ile): >64; MIC fold-change vs control of respective replicate ([3]; TK in CAMHB + 1% mucin, PMB 0.5 mg/L, replicate 2, pmrB Pro170Leu): >32; MIC fold-change vs control of respective replicate ([3]; TK in CAMHB + 1% mucin, PMB 0.5 mg/L, replicate 3, pmrB Arg231Leu): >64; MIC fold-change vs control of respective replicate ([3]; TK in CAMHB + 1% mucin, PMB 13 mg/L, replicate 4, pmrB Ala227Val): >64; MIC fold-change vs control of respective replicate ([3]; TK in CAMHB, PMB 0.5 mg/L, replicate 2, pmrB Arg263His): >32; MIC fold-change vs control of respective replicate ([3]; TK in CAMHB, PMB 0.5 mg/L, replicate 3, ISAba1 insertion in the promoter of pmrC_3): 32; MIC fold-change vs control of respective replicate ([3]; TK in CAMHB, PMB 0.5 mg/L, replicate 4, pmrB Asn353Tyr): >64; MIC fold-change vs control of respective replicate ([3]; TK in CAMHB, PMB 1 mg/L, replicate 4, pmrB 16.25dup): 32; MIC fold-change vs control of respective replicate ([3]; TK in CAMHB, PMB 4 mg/L, replicate 2, pmrB Pro170Leu): >32; Regrowth samples at T30h with MIC increased (≥32-fold) compared to control ([3]; TK in the absence of mucin, 6 out of 10 samples): 60%; Regrowth samples at T30h with MIC increased (same order of magnitude, ≥32-fold) compared to control ([3]; TK in the presence of mucin, 5 out of 16 samples): 31%; Cases of regrowth associated with an increase in the MIC at T30h [3, 7]: 42%; Fold increase of EmaxR in the presence of mucin ([4]; 1% mucin vs no mucin): 1.4 fold; Unbound PMB concentrations at which regrowth was observed in TK ([4]; one-third of replicates): ≤ 13 mg/L; Unbound PMB concentrations at which regrowth was observed in TK ([4]; two-thirds of replicates): ≤ 0.5 mg/L; PMB concentrations up to which regrowth was observed in TK after initial CFU decay ([4]; CAMHB without mucin, 30 h): up to 8 mg/L; Stability over the course of the experiment [5]: stable; Fold increase of EC50 in the presence of mucin ([6]; 1% mucin vs no mucin, both S and R subpopulations): increased approx. fivefold; also recorded: fivefold increase; Unbound PMB concentration able to prevent bacterial regrowth in TK ([6]; CAMHB + 1% mucin, no concentration in the range tested prevented regrowth): > 304 mg/L; PMB concentrations up to which regrowth was observed in TK after initial CFU decay ([6]; CAMHB without mucin, 30 h): ≤ 128 mg/L
